PubChem BioAssay (NCI)
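Compound exposure: 48 hours, 5 concentrations, 96-well plates. GI50 = concentration required for 50% inhibition of growth. TGI denotes the concentration required for complete inhibition of growth.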

Legend:
Assay in all cases: DTP human tumour cell line panel, 48 h
[1] = test system: OVCAR-5 ovarian
[2] = test system: SN12C renal
[3] = test system: NCI-H522 lung
[4] = test system: LOX IMVI melanoma
[5] = test system: OVCAR-3 ovarian
[6] = test system: SR leukemia
[7] = test system: IGROV1 ovarian
[8] = test system: EKVX NSCLC
[9] = test system: HL-60(TB) leukemia
[10] = test system: SF-295 CNS

| Structure (SMILES) | GI50 [1] [µM] | TGI [1] [µM] | GI50 [2] [µM] | TGI [2] [µM] | GI50 [3] [µM] | TGI [3] [µM] | GI50 [4] [µM] | TGI [4] [µM] | GI50 [5] [µM] | TGI [5] [µM] | GI50 [6] [µM] | TGI [6] [µM] | GI50 [7] [µM] | TGI [7] [µM] | GI50 [8] [µM] | TGI [8] [µM] | GI50 [9] [µM] | TGI [9] [µM] | GI50 [10] [µM] | TGI [10] [µM] |
| --- | --- | --- | --- | --- | --- | --- | --- | --- | --- | --- | --- | --- | --- | --- | --- | --- | --- | --- | --- | --- |
| COc1ccc2c(c1)O/C(=C\c1cccc(OCC(=O)Nc3nc(C)c(C)s3)c1)C2=O | 3.79 | > 26.3 | 2 | > 100 | 1.26 | 2.95 | 0.189 | 0.351 | 0.448 | 1.05 | 0.537 | 1.37 | 0.152 | 0.316 | 8.42 | > 54.1 | 1.48 | 3.16 | 28.9 | > 100 |
| COc1cccc2nc3c(C(=O)NCCN(C)C)cccc3nc12 |  | 42.4 |  | > 72.3 |  | > 44.1 |  | 14.1 |  | 73.9 |  | > 37.9 |  | > 72.9 |  | 40.5 |  | 17.5 |  | 36.8 |
| CCc1nn2ncccc2c1-c1ccnc(NC2CC2)n1 | > 25 | > 25 | > 25 | > 25 | > 25 | > 25 | > 25 | > 25 | > 25 | > 25 | > 25 | > 25 | > 25 | > 25 | > 25 | > 25 | > 25 | > 25 | > 25 | > 25 |
